In patent publication US7517874B2 (priority 2007, dated 2009):

What was measured:
rat CB2 receptor (rCB2) = target: T1, rat CB2 receptor (rCB2) (Rattus norvegicus, UniProt Q9QZN9); test: cell-based; assay type: cell-based; conditions: for +/− RCB2: agonist or inverse agonist at rCB2
T1 sequence (Q9QZN9 1-360): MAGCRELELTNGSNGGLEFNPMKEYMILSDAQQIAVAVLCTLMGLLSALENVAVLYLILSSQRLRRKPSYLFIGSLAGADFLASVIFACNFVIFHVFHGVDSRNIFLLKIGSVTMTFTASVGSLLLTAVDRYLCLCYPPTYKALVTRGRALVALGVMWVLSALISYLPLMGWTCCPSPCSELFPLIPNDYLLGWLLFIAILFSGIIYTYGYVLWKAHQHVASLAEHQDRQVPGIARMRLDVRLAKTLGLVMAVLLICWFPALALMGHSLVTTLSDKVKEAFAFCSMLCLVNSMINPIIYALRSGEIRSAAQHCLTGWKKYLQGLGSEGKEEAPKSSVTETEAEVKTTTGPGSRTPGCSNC
Method in brief: (§1)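 Readout: LANCE TR-FRET cAMP, back-calculated from a concurrent standard curve and scaled between forskolin-only and forskolin + 1 μM CP55,940 wells. EC50 and intrinsic activity came from four-parameter fits.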

[1] = target: human CB1 receptor (hCB1) (Homo sapiens, UniProt P21554); test: cell-based; assay type: cell-based; conditions: for +/− HCB1: agonist or inverse agonist at hCB1
Method in brief: as §1

human CB1 receptor (hCB1), sequence (P21554 whole entry): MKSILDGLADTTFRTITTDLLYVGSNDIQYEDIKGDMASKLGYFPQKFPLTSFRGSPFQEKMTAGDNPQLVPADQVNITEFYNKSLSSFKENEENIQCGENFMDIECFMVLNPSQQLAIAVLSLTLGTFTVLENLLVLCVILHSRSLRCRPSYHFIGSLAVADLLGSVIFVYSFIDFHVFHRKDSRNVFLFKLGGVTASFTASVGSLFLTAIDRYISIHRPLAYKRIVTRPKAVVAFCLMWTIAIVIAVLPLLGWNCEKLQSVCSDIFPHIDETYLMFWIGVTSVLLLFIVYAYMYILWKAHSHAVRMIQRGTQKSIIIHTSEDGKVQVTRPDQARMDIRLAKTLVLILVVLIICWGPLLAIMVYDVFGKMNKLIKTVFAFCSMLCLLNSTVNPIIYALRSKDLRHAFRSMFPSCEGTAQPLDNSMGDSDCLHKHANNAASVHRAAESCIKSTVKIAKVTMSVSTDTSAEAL

Row | SMILES | +/− RCB2 (rat CB2 receptor (rCB2)) | EC50 [1] | +/− HCB1 [1] | EC50 (rat CB2 receptor (rCB2))
1 | CNC(=O)[C@@H](NC(=O)c1nc(-c2ccccc2)n2c1CN(C)CCC2)c1ccccc1 [Compound 543, (S)-8-methyl-N-(2-(methylamino)-2-oxo-1-phenylethyl)-3-phenyl-6,7,8,9-tetrahydro-5H-imidazo[1,5-a][1,4]diazepine-1-carboxamide] | + | > 10 µM |  | 
2 | CNC(=O)[C@H](CC(C)(C)C)NC(=O)c1nc(-c2ccc(Cl)cc2F)n2c1CN(C)CCC2 [Compound 544, (S)-3-(4-chloro-2-fluorophenyl)-N-(4,4-dimethyl-1-(methylamino)-1-oxopentan-2-yl)-8-methyl-6,7,8,9-tetrahydro-5H-imidazo[1,5-a][1,4]diazepine-1-carboxamide] | + |  | + | 
3 | CNC(=O)[C@H](CC(C)(C)C)NC(=O)c1nc(-c2cc(Cl)ccc2F)n2c1CN(C)CCC2 [Compound 545, (S)-3-(5-chloro-2-fluorophenyl)-N-(4,4-dimethyl-1-(methylamino)-1-oxopentan-2-yl)-8-methyl-6,7,8,9-tetrahydro-5H-imidazo[1,5-a][1,4]diazepine-1-carboxamide] | + |  | + | 
4 | CNC(=O)[C@H](CC(C)(C)C)NC(=O)c1nc(-c2ccc(F)cc2)n2c1CN(C)CCC2 [Compound 547, (S)-N-(4,4-dimethyl-1-(methylamino)-1-oxopentan-2-yl)-3-(4-fluorophenyl)-8-methyl-6,7,8,9-tetrahydro-5H-imidazo[1,5-a][1,4]diazepine-1-carboxamide] | + |  | + | 
5 | CNC(=O)[C@H](CC(C)(C)C)NC(=O)c1nc(-c2cccc(F)c2)n2c1CN(C)CCC2 [Compound 548, (S)-N-(4,4-dimethyl-1-(methylamino)-1-oxopentan-2-yl)-3-(3-fluorophenyl)-8-methyl-6,7,8,9-tetrahydro-5H-imidazo[1,5-a][1,4]diazepine-1-carboxamide] | + |  | + | 
6 | CNC(=O)[C@H](CC(C)(C)C)NC(=O)c1nc(-c2ccc(F)cc2F)n2c1CN(C)CCC2 [Compound 549, (S)-3-(2,4-difluorophenyl)-N-(4,4-dimethyl-1-(methylamino)-1-oxopentan-2-yl)-8-methyl-6,7,8,9-tetrahydro-5H-imidazo[1,5-a][1,4]diazepine-1-carboxamide] |  | > 10 µM |  | > 10 µM
7 | CNC(=O)[C@H](CC(C)(C)C)NC(=O)c1nc(-c2ccc(Cl)c(F)c2)n2c1CN(C)CCC2 [Compound 550, (S)-3-(4-chloro-3-fluorophenyl)-N-(4,4-dimethyl-1-(methylamino)-1-oxopentan-2-yl)-8-methyl-6,7,8,9-tetrahydro-5H-imidazo[1,5-a][1,4]diazepine-1-carboxamide] | − | > 10 µM |  | 
8 | CNC(=O)[C@H](CC(C)(C)C)NC(=O)c1nc(-c2ccc(C(F)(F)F)cc2F)n2c1CN(C)CCC2 [Compound 551, (S)-N-(4,4-dimethyl-1-(methylamino)-1-oxopentan-2-yl)-3-(2-fluoro-4-(trifluoromethyl)phenyl)-8-methyl-6,7,8,9-tetrahydro-5H-imidazo[1,5-a][1,4]diazepine-1-carboxamide] | + |  | + | 
9 | CNC(=O)[C@H](CC(C)(C)C)NC(=O)c1nc(-c2ccc(F)c(F)c2)n2c1CN(C)CCC2 [Compound 552, (S)-3-(3,4-diflurophenyl)-N-(4,4-dimethyl-1-(methylamino)-1-oxopentan-2-yl)-8-methyl-6,7,8,9-tetrahydro-5H-imidazo[1,5-a][1,4]diazepine-1-carboxamide] | + |  | + | 
10 | CNC(=O)[C@H](CC(C)(C)C)NC(=O)c1nc(-c2cc(F)ccc2F)n2c1CN(C)CCC2 [Compound 553, (S)-3-(2,5-difluorophenyl)-N-(4,4-dimethyl-1-(methylamino)-1-oxopentan-2-yl)-8-methyl-6,7,8,9-tetrahydro-5H-imidazo[1,5-a][1,4]diazepine-1-carboxamide] |  | > 10 µM |  | > 10 µM
11 | CNC(=O)[C@H](CC(C)(C)C)NC(=O)c1nc(-c2cc(Cl)c(F)cc2F)n2c1CN(C)CCC2 [Compound 554, (S)-3-(5-chloro-2,4-difluorophenyl)-N-(4,4-dimethyl-1-(methylamino)-1-oxopentan-2-yl)-8-methyl-6,7,8,9-tetrahydro-5H-imidazo[1,5-a][1,4]diazepine-1-carboxamide] | + |  | + | 
12 | CNC(=O)[C@H](CC(C)(C)C)NC(=O)c1nc(-c2cc(F)c(F)cc2F)n2c1CN(C)CCC2 [Compound 555, (S)-N-(4,4-dimethyl-1-(methylamino)-1-oxopentan-2-yl)-8-methyl-3-(2,4,5-trifluorophenyl)-6,7,8,9-tetrahydro-5H-imidazo[1,5-a][1,4]diazepine-1-carboxamide] | + |  | + | 
13 | CN1CCCn2c(-c3ccc(Cl)cc3F)nc(C(=O)N[C@H](C(=O)N(C)C)C(C)(C)C)c2C1 [Compound 556, (S)-3-(4-chloro-2-fluorophenyl)-N-(1-(dimethylamino)-3,3-dimethyl-1-oxobutan-2-yl)-8-methyl-6,7,8,9-tetrahydro-5H-imidazo[1,5-a][1,4]diazepine-1-carboxamide] |  |  | + | > 10 µM
14 | CN1CCCn2c(-c3ccccc3)nc(C(=O)N[C@H](C(=O)N(C)C)C(C)(C)C)c2C1 [Compound 557, (S)-N-(1-(dimethylamino)-3,3-dimethyl-1-oxobutan-2-yl)-8-methyl-3-phenyl-6,7,8,9-tetrahydro-5H-imidazo[1,5-a][1,4]diazepine-1-carboxamide] | + | > 10 µM |  | 
15 | CN1CCCn2c(-c3ccc(F)c(Cl)c3)nc(C(=O)N[C@H](C(=O)N(C)C)C(C)(C)C)c2C1 [Compound 558, (S)-3-(3-chloro-4-fluorophenyl)-N-(1-(dimethylamino)-3,3-dimethyl-1-oxobutan-2-yl)-8-methyl-6,7,8,9-tetrahydro-5H-imidazo[1,5-a][1,4]diazepine-1-carboxamide] | + |  | + | 
16 | CN1CCCn2c(-c3cc(Cl)ccc3F)nc(C(=O)N[C@H](C(=O)N(C)C)C(C)(C)C)c2C1 [Compound 559, (S)-3-(5-chloro-2-fluorophenyl)-N-(1-(dimethylamino)-3,3-dimethyl-1-oxobutan-2-yl)-8-methyl-6,7,8,9-tetrahydro-5H-imidazo[1,5-a][1,4]diazepine-1-carboxamide] |  |  | + | > 10 µM
17 | CN1CCCn2c(-c3ccc(Cl)c(F)c3)nc(C(=O)N[C@H](C(=O)N(C)C)C(C)(C)C)c2C1 [Compound 560, (S)-3-(4-chloro-3-fluorophenyl)-N-(1-(dimethylamino)-3,3-dimethyl-1-oxobutan-2-yl)-8-methyl-6,7,8,9-tetrahydro-5H-imidazo[1,5-a][1,4]diazepine-1-carboxamide] | + |  | + | 
18 | CN1CCCn2c(-c3ccc(F)c(F)c3)nc(C(=O)N[C@H](C(=O)N(C)C)C(C)(C)C)c2C1 [Compound 561, (S)-3-(3,4-difluorophenyl)-N-(1-(dimethylamino)-3,3-dimethyl-1-oxobutan-2-yl)-8-methyl-6,7,8,9-tetrahydro-5H-imidazo[1,5-a][1,4]diazepine-1-carboxamide] | + |  | + | 
